# How the values were obtained:
# [1] = tested on: primary human mesenchymal stem cells (hMSCs); assay: Tenocyte Differentiation Assay, hMSCs, 7 days (Example 11); assay type: cell-based; conditions: 168 h, 750-5.8 nM, read-out: EC50, induction of SCXA, TenacinC and Tenomodulin expression
# Protocol: Primary human mesenchymal stem cells (hMSCs; Lonza Inc) were cultured in MSCGM™ Mesenchymal Stem Cell Growth Medium, with 10% FBS (Lonza) 10% fetal bovine serum (FBS) (Hyclone) at 37° C., 5% CO2. hMSCs were used between passage 2 and 6 and were never allowed to reach confluence to maintain a naive state.
# Tenocyte Differentiation Assay. For tenocyte differentiation, hMSCs were plated in 384-well plates at 1×10^4 cells/well in Dulbecco's modified Eagle's medium (DMEM, ThermoFisher) with 1% fetal bovine serum (FBS) (Hyclone). Cells were then treated with DMSO (vehicle control) or compound 175 at 750 nM top concentration and 2-fold dilution up to 8 concentrations ([…], 166.6, 83.3, 41.7, 21.7, 10.8 and 5.8 nM) and incubated for 7 days at 37° C. A combination of BMP and FGF ([…], Peprotech, Inc.) was used as a positive control. […] Plates were imaged using a CX5 high-content imager (ThermoFisher) and the % of cells stained positive were determined using a cell scoring algorithm (ThermoFisher). Data was plotted and EC50 was calculated using Prism 5 (GraphPad Software Inc, La Jolla, Calif., USA). […]
# [2] = tested on: KC/GRO in plasma; assay: Rat Tendinopathy Model (2), plasma biomarker KC/GRO; assay type: in vivo
# Protocol: Fifty (50 μl) of Collagenase Type IA (10 mg/ml in PBS, pH 7.4, approximately 469 units/mg) (Catalog # C5138, Sigma, St. Louis, Mo.) was injected into the Achilles tendon of both ankles near the osteotendinous junction of male Sprague Dawley CD® IGS rats (CRL, Inc.), using insulin syringes with 28.5 G needle.
# Rats were divided into 6 groups, with 6 animals per group except 8 animals in Group 2: Group 1 (sham injection), Group 2 (Collagenase-Vehicle with 0.5% Phx), Group 3 (Collagenase-compound 175 3 mg/mL with 0.5% BA), Group 4 (Collagenase-compound 175 10 mg/mL with 0.5% BA), Group 5 (Collagenase-compound 175 3 mg/mL with 0.5% Phx) and Group 6 (Collagenase-compound 175 10 mg/mL with 0.5% Phx). […] All rats were periodically observed for any pain, illnesses or abnormalities. At various time points, blood was collected for plasma in lithium heparin coated tubes by saphenous vein bleeding. For histology, rats were euthanized using isoflurane, tendons were isolated (n=8 tendons/group), fixed in 10% buffered formalin (Catalog # SF93-4, Fisher, Pittsburgh, Pa.) and H & E histology staining was performed at a secondary site (Pacific Pathology, San Diego, Calif.). For biochemical analysis, tendons were isolated (n=4 tendons/group), flash frozen in liquid nitrogen and then stored at −80° C. for subsequent biochemical analysis (not reported). Additionally, one (1) day after collagenase injection, 4 tendons were collected from Group 2 (vehicle) to observe the induction of inflammation (not reported).
# Following manufacturer's instructions, KC/GRO plasma levels were determined using the KC/GRO Immunoassay kit (Cat #900-K57, Peprotech, Rocky Hill, N.J.). Briefly, 96-well plates were coated with the anti-rat KC/GRO capture antibody overnight and washed to remove excess antibody. Plasma samples were incubated in the coated plates for 2 hours at room temperature. Following washes to remove unbound proteins, biotinylated anti-rat KC/GRO detection antibody was added and incubated for 30 mins at room temperature. Following washes to remove unbound excess antibody, avidin-HRP was added and incubated for 30 mins at room temperature. Following washes to remove unbound avidin-HRP, the ABTS substrate was added and the plates were read on the Cytation 3 plate reader (Biotek Inc., Winooski, Vt.) at an absorbance of 525 nm with correction at 450 nm. All samples were processed in triplicate.
compound,measurement,setting,value
"COc1ccc(NC(=O)c2n[nH]c3ccc(-c4cncc(CN5CCCCC5)c4)cc23)cn1 [compound 175, N-(6-Methoxypyridin-3-yl)-5-(5-(piperidin-1-ylmethyl)pyridin-3-yl)-1H-indazole-3-carboxamide]",EC50,[1],139 to 189 nM
same,plasma KC/GRO vs vehicle,"[2]; 3 and 10 mg/mL, with either BA or Phx as preservative",significantly decreased the levels of KC/GRO in plasma
same,Plasma KC/GRO Concentration,"[2]; Day 0, Group 3, 3 mg/mL, 0.5% BA",78.2 ± 14.9 pg/mL
same,Plasma KC/GRO Concentration,"[2]; Day 0, Group 4, 10 mg/mL, 0.5% BA",224 ± 40.1 pg/mL
same,Plasma KC/GRO Concentration,"[2]; Day 0, Group 5, 3 mg/mL, 0.5% Phx",112 ± 74.0 pg/mL
same,Plasma KC/GRO Concentration,"[2]; Day 0, Group 6, 10 mg/mL, 0.5% Phx",254 ± 60.6 pg/mL
same,Plasma KC/GRO Concentration,"[2]; Day 1, Group 3, 3 mg/mL, 0.5% BA",472 ± 47.2 pg/mL
same,Plasma KC/GRO Concentration,"[2]; Day 1, Group 4, 10 mg/mL, 0.5% BA",360 ± 31.4 pg/mL
same,Plasma KC/GRO Concentration,"[2]; Day 1, Group 5, 3 mg/mL, 0.5% Phx",416 ± 47.9 pg/mL
same,Plasma KC/GRO Concentration,"[2]; Day 1, Group 6, 10 mg/mL, 0.5% Phx",375 ± 44.4 pg/mL
same,Plasma KC/GRO Concentration,"[2]; Day 3, Group 3, 3 mg/mL, 0.5% BA",449 ± 53.9 pg/mL
same,Plasma KC/GRO Concentration,"[2]; Day 3, Group 4, 10 mg/mL, 0.5% BA",454 ± 52.2 pg/mL
same,Plasma KC/GRO Concentration,"[2]; Day 3, Group 5, 3 mg/mL, 0.5% Phx",374 ± 89.1 pg/mL
same,Plasma KC/GRO Concentration,"[2]; Day 3, Group 6, 10 mg/mL, 0.5% Phx",405 ± 42.1 pg/mL
same,Plasma KC/GRO Concentration,"[2]; Day 5, Group 3, 3 mg/mL, 0.5% BA",561 ± 97.2 pg/mL
same,Plasma KC/GRO Concentration,"[2]; Day 5, Group 4, 10 mg/mL, 0.5% BA",327 ± 49.9 pg/mL
same,Plasma KC/GRO Concentration,"[2]; Day 5, Group 5, 3 mg/mL, 0.5% Phx",431 ± 24.5 pg/mL
same,Plasma KC/GRO Concentration,"[2]; Day 5, Group 6, 10 mg/mL, 0.5% Phx",328 ± 37.1 pg/mL
same,Plasma KC/GRO Concentration,"[2]; Day 7, Group 3, 3 mg/mL, 0.5% BA",445 ± 54.5 pg/mL
same,Plasma KC/GRO Concentration,"[2]; Day 7, Group 4, 10 mg/mL, 0.5% BA",396 ± 92.4 pg/mL
same,Plasma KC/GRO Concentration,"[2]; Day 7, Group 5, 3 mg/mL, 0.5% Phx",422 ± 47.9 pg/mL
same,Plasma KC/GRO Concentration,"[2]; Day 7, Group 6, 10 mg/mL, 0.5% Phx",299 ± 53.9 pg/mL
same,Plasma KC/GRO Concentration,"[2]; Day 14, Group 3, 3 mg/mL, 0.5% BA",319 ± 57.7 pg/mL
same,Plasma KC/GRO Concentration,"[2]; Day 14, Group 4, 10 mg/mL, 0.5% BA",343 ± 59.4 pg/mL
same,Plasma KC/GRO Concentration,"[2]; Day 14, Group 5, 3 mg/mL, 0.5% Phx",505 ± 41.0 pg/mL
same,Plasma KC/GRO Concentration,"[2]; Day 14, Group 6, 10 mg/mL, 0.5% Phx",265 ± 20.8 pg/mL
same,Plasma KC/GRO Concentration,"[2]; Day 21, Group 3, 3 mg/mL, 0.5% BA",150 ± 53.8 pg/mL
same,Plasma KC/GRO Concentration,"[2]; Day 21, Group 4, 10 mg/mL, 0.5% BA",350 ± 25.6 pg/mL
same,Plasma KC/GRO Concentration,"[2]; Day 21, Group 5, 3 mg/mL, 0.5% Phx",226 ± 37.3 pg/mL
same,Plasma KC/GRO Concentration,"[2]; Day 21, Group 6, 10 mg/mL, 0.5% Phx",342 ± 39.7 pg/mL
same,"plasma KC/GRO levels, range","[2]; Days 5-21, all four treated groups",150 to 561 pg/mL
